According to US8754075B2, “1,3-oxazines as BACE1 and/or BACE2 inhibitors” (Hoffmann-La Roche Inc., priority 2011, dated 2014):

Columns and labels:
BACE1 = BACE1 (Homo sapiens (Human), UniProt P56817); experiment: Cellular Aβ-lowering assay; format: cell-based; conditions: HEK293 cells stably expressing human APP wt (APP695); Aβ40 in supernatant by ELISA after 18-20 hrs
Description: Cellular Aβ-Lowering Assay: Human HEK293 cells which are stably transfected with a vector expressing a cDNA of the human APP wt gene (APP695) were used to assess the potency of the compounds in a cellular assay. The cells were seeded in 96-well microtiter plates in cell culture medium (Iscove, plus 10% (v/v) fetal bovine serum, glutamine, penicillin/streptomycin) to about 80% confluence and the compounds were added at a 10× concentration in 1/10 volume of medium without FCS containing 8% DMSO (final concentration of DMSO was kept at 0.8% v/v). After 18-20 hrs incubation at 37° C. and 5% CO2 in a humidified incubator the culture supernatant was harvested for the determination of Aβ40 concentrations. […] After blocking of non-specific binding sites with e.g. 1% BSA and washing, the culture supernatants were added in suitable dilutions together with a horseradish peroxidase-coupled Aβ detection antibody (e.g., antibody 4G8, Senetek, Maryland Heights, Mo.) and incubated for 5 to 7 hrs. Subsequently the wells of the microtiter plate were washed extensively with Tris-buffered saline containing 0.05% Tween 20 and the assay was developed with tetramethylbenzidine/H2O2 in citric acid buffer. After stopping the reaction with one volume […] the reaction was measured in an ELISA reader at 450 nm wavelength. The concentrations of Aβ in the culture supernatants were calculated from a standard curve obtained with known amounts of pure Aβ peptide.

BACE2 = BACE2 (Rattus norvegicus (Rat), UniProt Q6IE75); experiment: Assay for BACE inhibition by measuring cellular TMEM27 cleavage; format: cell-based; conditions: INS-TMEM27 (INS1e rat cell line, inducible hTMEM27); shed TMEM27 by ELISA
Sequence of BACE2 (Q6IE75 63-514): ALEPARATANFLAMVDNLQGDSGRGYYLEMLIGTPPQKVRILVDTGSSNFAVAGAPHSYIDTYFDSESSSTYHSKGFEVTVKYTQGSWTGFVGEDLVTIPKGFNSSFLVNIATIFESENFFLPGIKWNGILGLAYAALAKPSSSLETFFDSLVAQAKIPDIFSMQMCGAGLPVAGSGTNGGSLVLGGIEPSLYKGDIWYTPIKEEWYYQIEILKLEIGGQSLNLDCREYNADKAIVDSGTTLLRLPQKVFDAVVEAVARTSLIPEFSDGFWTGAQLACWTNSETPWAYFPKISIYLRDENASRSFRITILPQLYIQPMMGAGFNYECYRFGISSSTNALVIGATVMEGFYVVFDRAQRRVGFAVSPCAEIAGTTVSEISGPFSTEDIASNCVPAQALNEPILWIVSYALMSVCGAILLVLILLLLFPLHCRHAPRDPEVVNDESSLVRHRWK
From the text: Assay for BACE Inhibition by Measuring Cellular TMEM27 Cleavage:
The assay uses the principle of inhibition of human TMEM27 cleavage by endogenous cellular BACE2 in the Ins1e rat cell line and shedding from the cell surface into the culture medium, followed by detection in an ELISA assay Inhibition of BACE2 prevents the cleavage and shedding in a dose-dependent manner.
The stable cell line “INS-TMEM27” represents an INS1e-derived cell line with inducible expression (using the TetOn system) of full-length hTMEM27 in a doxycycline-dependent manner. The cells are cultured throughout the experiment in RPMI1640+Glutamax (Invitrogen) Penicillin/Streptomycin, 10% Fetal bovine serum, […], […], 100 micrograms/ml G418 and 100 microgram/ml hygromycin and are grown inadherent culture at 37° C. in a standard CO2 cell culture incubator.
INS-TMEM27 cells are seeded in 96-well plates. After 2 days in culture, BACE2 inhibitor is added in a range of concentrations as required by the assay and after a further two hours, doxycycline is added to a final concentration of 500 ng/ml. The cells are incubated for a further 46 hours and the supernatant harvested for detection of shed TMEM27.
An ELISA assay (using a pair of mouse anti-human-TMEM27 antibodies, raised against the extracellular domain of TMEM27) is used for detection of TMEM27 in the culture medium. An EC50 for BACE2 inhibition is calculated using the ELISA readout for each inhibitor concentration with standard curve-fitting software such as XLFit for the Excel spreadsheet program.

Sequence of BACE1 (P56817 46-501): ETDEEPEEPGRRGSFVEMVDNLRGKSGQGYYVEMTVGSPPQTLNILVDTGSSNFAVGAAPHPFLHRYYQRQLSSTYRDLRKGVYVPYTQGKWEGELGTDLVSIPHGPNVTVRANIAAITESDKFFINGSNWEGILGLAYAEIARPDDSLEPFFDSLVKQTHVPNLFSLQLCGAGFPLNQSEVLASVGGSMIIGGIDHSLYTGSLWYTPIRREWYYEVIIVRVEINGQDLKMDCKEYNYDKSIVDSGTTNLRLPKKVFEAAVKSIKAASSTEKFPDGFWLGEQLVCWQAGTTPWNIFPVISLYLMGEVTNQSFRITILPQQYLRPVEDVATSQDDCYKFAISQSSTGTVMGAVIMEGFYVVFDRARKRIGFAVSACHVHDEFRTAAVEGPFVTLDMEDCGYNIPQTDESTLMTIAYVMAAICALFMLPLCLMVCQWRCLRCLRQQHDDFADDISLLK

Compound | IC50 (BACE1) [nM] | IC50 (BACE2) [nM]
C[C@]1(c2cc(NC(=O)c3ccc(Cl)cn3)ccc2F)N=C(N)OC[C@@H]1F [Example 1, 5-Chloro-pyridine-2-carboxylic acid [3-((4R,5R)-2-amino-5-fluoro-4-methyl-5,6-dihydro-4H-[1,3]oxazin-4-yl)-4-fluoro-phenyl]-amide] | 0.4 | 1
C[C@]1(c2cc(NC(=O)c3ncc(Cl)cc3Cl)ccc2F)N=C(N)OC[C@@H]1F [Example 2, 3,5-Dichloro-pyridine-2-carboxylic acid [3-((4R,5R)-2-amino-5-fluoro-4-methyl-5,6-dihydro-4H-[1,3]oxazin-4-yl)-4-fluoro-phenyl]-amide] | 0.6 | 8
C[C@]1(c2cc(NC(=O)c3ncc(F)cc3F)ccc2F)N=C(N)OC[C@@H]1F [Example 3, 3,5-Difluoro-pyridine-2-carboxylic acid [3-((4R,5R)-2-amino-5-fluoro-4-methyl-5,6-dihydro-4H-[1,3]oxazin-4-yl)-4-fluoro-phenyl]-amide] | 1 | 7
C[C@]1(c2cc(NC(=O)c3ccc(OCF)cn3)ccc2F)N=C(N)OC[C@@H]1F [Example 5, 5-Fluoromethoxy-pyridine-2-carboxylic acid [3-((4R,5R)-2-amino-5-fluoro-4-methyl-5,6-dihydro-4H-[1,3]oxazin-4-yl)-4-fluoro-phenyl]] | 1 | 106
C[C@]1(c2cc(NC(=O)c3ccc(OC(F)F)cn3)ccc2F)N=C(N)OC[C@@H]1F [Example 6, 5-Difluoromethoxy-pyridine-2-carboxylic acid [3-((4R,5R)-2-amino-5-fluoro-4-methyl-5,6-dihydro-4H-[1,3]oxazin-4-yl)-4-fluoro-phenyl]-amide] | 2 | 
C[C@]1(c2cc(NC(=O)c3ncc(C#N)cc3Cl)ccc2F)N=C(N)OC[C@@H]1F [Example 7, 3-Chloro-5-cyano-pyridine-2-carboxylic acid [3-((4R,5R)-2-amino-5-fluoro-4-methyl-5,6-dihydro-4H-[1,3]oxazin-4-yl)-4-fluoro-phenyl]-amide] | 2 | 10
C[C@]1(c2cc(NC(=O)c3ncc(Cl)cc3F)ccc2F)N=C(N)OC[C@@H]1F [Example 8, 5-Chloro-3-fluoro-pyridine-2-carboxylic acid [3-((4R,5R)-2-amino-5-fluoro-4-methyl-5,6-dihydro-4H-[1,3]oxazin-4-yl)-4-fluoro-phenyl]-amide] | 2 | 6
C[C@]1(c2cc(NC(=O)c3ncc(C(F)(F)F)cc3Cl)ccc2F)N=C(N)OC[C@@H]1F [Example 9, 3-Chloro-5-trifluoromethyl-pyridine-2-carboxylic acid [3-((4R,5R)-2-amino-5-fluoro-4-methyl-5,6-dihydro-4H-[1,3]oxazin-4-yl)-4-fluoro-phenyl]-amide] | 2 | 124
C[C@]1(c2cc(NC(=O)c3cnc(OCF)cn3)ccc2F)N=C(N)OC[C@@H]1F [Example 10, 5-Fluoromethoxy-pyrazine-2-carboxylic acid [3-((4R,5R)-2-amino-5-fluoro-4-methyl-5,6-dihydro-4H-[1,3]oxazin-4-yl)-4-fluoro-phenyl]-amide] | 24 | 
C[C@]1(c2cc(NC(=O)c3ccc(C(F)F)cn3)ccc2F)N=C(N)OC[C@@H]1F [Example 11, 5-Difluoromethyl-pyridine-2-carboxylic acid [3-((4R,5R)-2-amino-5-fluoro-4-methyl-5,6-dihydro-4H-[1,3]oxazin-4-yl)-4-fluoro-phenyl]-amide] | 3 | 1
C[C@]1(c2cc(NC(=O)c3ncc(C(F)(F)F)cc3F)ccc2F)N=C(N)OC[C@@H]1F [Example 12, 3-Fluoro-5-trifluoromethyl-pyridine-2-carboxylic acid [3-((4R,5R)-2-amino-5-fluoro-4-methyl-5,6-dihydro-4H-[1,3]oxazin-4-yl)-4-fluoro-phenyl]-amide] | 4 | 
C[C@]1(c2cc(NC(=O)c3cnc(OCC(F)F)cn3)ccc2F)N=C(N)OC[C@@H]1F [Example 19, 5-(2,2-Difluoro-ethoxy)-pyrazine-2-carboxylic acid [3-((4R,5R)-2-amino-5-fluoro-4-methyl-5,6-dihydro-4H-[1,3]oxazin-4-yl)-4-fluoro-phenyl]-amide] | 8 | 
C[C@]1(c2cc(NC(=O)c3ccc(OCC(F)F)cn3)ccc2F)N=C(N)OC[C@@H]1F [Example 21, 5-(2,2-Difluoro-ethoxy)-pyridine-2-carboxylic acid [3-((4R,5R)-2-amino-5-fluoro-4-methyl-5,6-dihydro-4H-[1,3]oxazin-4-yl)-4-fluoro-phenyl]-amide] | 13 | 
C[C@]1(c2cc(NC(=O)c3ccc(OCC4CC4)cn3)ccc2F)N=C(N)OC[C@@H]1F [Example 23, 5-Cyclopropylmethoxy-pyridine-2-carboxylic acid [3-((4R,5R)-2-amino-5-fluoro-4-methyl-5,6-dihydro-4H-[1,3]oxazin-4-yl)-4-fluoro-phenyl]-amide] | 15 | 
C[C@]1(c2cc(NC(=O)c3ccc(OCC(F)(F)C(F)F)cn3)ccc2F)N=C(N)OC[C@@H]1F [Example 24, 5-(2,2,3,3-Tetrafluoro-propoxy)-pyridine-2-carboxylic acid [3-((4R,5R)-2-amino-5-fluoro-4-methyl-5,6-dihydro-4H-[1,3]oxazin-4-yl)-4-fluoro-phenyl]-amide] | 17 | 
C[C@]1(c2cc(NC(=O)c3ccc(OCC(F)(F)C(F)(F)F)cn3)ccc2F)N=C(N)OC[C@@H]1F [Example 25, 5-(2,2,3,3,3-Pentafluoro-propoxy)-pyridine-2-carboxylic acid [3-((4R,5R)-2-amino-5-fluoro-4-methyl-5,6-dihydro-4H-[1,3]oxazin-4-yl)-4-fluoro-phenyl]-amide] | 52 | 
C[C@]1(c2cc(NC(=O)c3cncs3)ccc2F)N=C(N)OC[C@@H]1F [Example 29, Thiazole-5-carboxylic acid [3-((4R,5R)-2-amino-5-fluoro-4-methyl-5,6-dihydro-4H-[1,3]oxazin-4-yl)-4-fluoro-phenyl]-amide] | 250 | 
Cc1cc(C(=O)Nc2ccc(F)c([C@@]3(C)N=C(N)OC[C@@H]3F)c2)nn1C [Example 30, 1,5-Dimethyl-1H-pyrazole-3-carboxylic acid [3-((4R,5R)-2-amino-5-fluoro-4-methyl-5,6-dihydro-4H-[1,3]oxazin-4-yl)-4-fluoro-phenyl]-amide] | 760 | 
C[C@]1(c2cc(NC(=O)C3(C#N)CC3)ccc2F)N=C(N)OC[C@@H]1F [Example 31, 1-Cyano-cyclopropanecarboxylic acid [3-((4R,5R)-2-amino-5-fluoro-4-methyl-5,6-dihydro-4H-[1,3]oxazin-4-yl)-4-fluoro-phenyl]-amide] | 75 | 
C[C@]1(c2cc(NC(=O)C3CC3)ccc2F)N=C(N)OC[C@@H]1F [Example 32, Cyclopropanecarboxylic acid [3-((4R,5R)-2-amino-5-fluoro-4-methyl-5,6-dihydro-4H-[1,3]oxazin-4-yl)-4-fluoro-phenyl]-amide] | 730 | 
C[C@]1(c2cc(NC(=O)c3ccc(Cl)cn3)ccc2F)N=C(N)OC[C@H]1F [Example 34, 5-Chloro-pyridine-2-carboxylic acid [3-((4R,5S)-2-amino-5-fluoro-4-methyl-5,6-dihydro-4H-[1,3]oxazin-4-yl)-4-fluoro-phenyl]-amide] | 42 | 
C[C@]1(c2cc(NC(=O)c3ccc(OCC(F)(F)F)cn3)ccc2F)N=C(N)OC[C@@H]1OCC(F)(F)F [Example 49, 5-(2,2,2-Trifluoro-ethoxy)-pyridine-2-carboxylic acid {3-[(4R,5R)-2-amino-4-methyl-5-(2,2,2-trifluoro-ethoxy)-5,6-dihydro-4H-[1,3]oxazin-4-yl]-4-fluoro-phenyl}-amide] | 21 | 
CC#CCOc1cnc(C(=O)Nc2ccc(F)c([C@@]3(C)N=C(N)OC[C@]3(C)F)c2)cn1 [Example 50, 5-But-2-ynyloxy-pyrazine-2-carboxylic acid [3-((4R,5R)-2-amino-5-fluoro-4,5-dimethyl-5,6-dihydro-4H-[1,3]oxazin-4-yl)-4-fluoro-phenyl]-amide] | 0.1 | 
